Experimental data: paper PMC8237303 (Heliyon, 2021)

Legend:
[1] = target: Endothelin ETA receptor (Human) (Homo sapiens, UniProt P25101); assay: [125I]-Endothelin-1; assay type: binding; settings: 0.1 mM l-menthol; Human recombinant
[2] = target: Serotonin 5HT1A receptor (Human) (Homo sapiens, UniProt P08908); assay: [3H]-8-Hydreoxy-DPAT binding assay; settings: 0.1 mM l-menthol; Human recombinant
[3] = target: Serotonin transporter (Human) (Homo sapiens, UniProt P31645); assay: [3H]-Imipramine hydrochloride binding assay; settings: 0.1 mM l-menthol; Human recombinant
[4] = target: Muscarinic M1 receptor (Human) (Homo sapiens, UniProt P11229); assay: [3H]-Scopolamine Methyl Chloride binding assay; settings: 0.1 mM l-menthol; Human recombinant
Ca Channel (Type N) = Ca Channel (Type N) (Rattus norvegicus, UniProt Q02294); assay type: binding
[5] = test system: Ca Channel (Type L, Dihydropyridine); assay: [3H]-PN200-110 binding assay; settings: 0.1 mM l-menthol; Rat cerebral cortex
[6] = test system: Ca channel (Type L, Benzothiazepine); assay: [3H]-; assay type: binding; settings: 0.1 mM l-menthol; Rat cerebral cortex
[7] = target: Neurokinin NK1 receptor (Human) (Homo sapiens, UniProt P25103); assay: [125I]-Substance P binding assay; settings: 0.1 mM l-menthol; Human recombinant
[8] = test system: Imidazoline receptor (Central); assay: [3H]RX 781094; assay type: binding; settings: 0.1 mM l-menthol; Rat cerebral cortex
[9] = target: Vasopressin V1B receptor (Human) (Homo sapiens, UniProt P47901); assay: [3H]-Vasopressin, 8-L-Arginine binding assay; settings: 0.1 mM l-menthol; Human recombinant
[10] = target: α2B-Adrenergic receptor (Human) (Homo sapiens, UniProt P18089); assay type: binding
Leukotriene B4 receptor = assay: [3H]-Leukotriene B4 binding assay; settings: 0.1 mM l-menthol; Guinea pig lung
[11] = target: Muscarinic M4 receptor (Human) (Homo sapiens, UniProt P08173); assay: [3H]-Scopolamine Methyl Chloride binding assay; settings: 0.1 mM l-menthol; Human recombinant
Muscarinic M4 receptor (Human), sequence (P08173 whole entry): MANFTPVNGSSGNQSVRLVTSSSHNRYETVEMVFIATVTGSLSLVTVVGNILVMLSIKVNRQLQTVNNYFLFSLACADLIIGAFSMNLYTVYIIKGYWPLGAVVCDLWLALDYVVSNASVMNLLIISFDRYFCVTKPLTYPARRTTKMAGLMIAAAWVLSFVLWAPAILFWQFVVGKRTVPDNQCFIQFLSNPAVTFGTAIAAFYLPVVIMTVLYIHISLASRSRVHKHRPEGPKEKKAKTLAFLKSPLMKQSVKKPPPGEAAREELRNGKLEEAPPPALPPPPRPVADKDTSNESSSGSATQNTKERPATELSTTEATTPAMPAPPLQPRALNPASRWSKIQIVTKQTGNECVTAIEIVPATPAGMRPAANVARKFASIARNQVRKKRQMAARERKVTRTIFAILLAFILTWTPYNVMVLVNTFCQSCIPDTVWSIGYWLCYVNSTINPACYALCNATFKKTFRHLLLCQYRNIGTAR

Ca Channel (Type N), sequence (Q02294 whole entry): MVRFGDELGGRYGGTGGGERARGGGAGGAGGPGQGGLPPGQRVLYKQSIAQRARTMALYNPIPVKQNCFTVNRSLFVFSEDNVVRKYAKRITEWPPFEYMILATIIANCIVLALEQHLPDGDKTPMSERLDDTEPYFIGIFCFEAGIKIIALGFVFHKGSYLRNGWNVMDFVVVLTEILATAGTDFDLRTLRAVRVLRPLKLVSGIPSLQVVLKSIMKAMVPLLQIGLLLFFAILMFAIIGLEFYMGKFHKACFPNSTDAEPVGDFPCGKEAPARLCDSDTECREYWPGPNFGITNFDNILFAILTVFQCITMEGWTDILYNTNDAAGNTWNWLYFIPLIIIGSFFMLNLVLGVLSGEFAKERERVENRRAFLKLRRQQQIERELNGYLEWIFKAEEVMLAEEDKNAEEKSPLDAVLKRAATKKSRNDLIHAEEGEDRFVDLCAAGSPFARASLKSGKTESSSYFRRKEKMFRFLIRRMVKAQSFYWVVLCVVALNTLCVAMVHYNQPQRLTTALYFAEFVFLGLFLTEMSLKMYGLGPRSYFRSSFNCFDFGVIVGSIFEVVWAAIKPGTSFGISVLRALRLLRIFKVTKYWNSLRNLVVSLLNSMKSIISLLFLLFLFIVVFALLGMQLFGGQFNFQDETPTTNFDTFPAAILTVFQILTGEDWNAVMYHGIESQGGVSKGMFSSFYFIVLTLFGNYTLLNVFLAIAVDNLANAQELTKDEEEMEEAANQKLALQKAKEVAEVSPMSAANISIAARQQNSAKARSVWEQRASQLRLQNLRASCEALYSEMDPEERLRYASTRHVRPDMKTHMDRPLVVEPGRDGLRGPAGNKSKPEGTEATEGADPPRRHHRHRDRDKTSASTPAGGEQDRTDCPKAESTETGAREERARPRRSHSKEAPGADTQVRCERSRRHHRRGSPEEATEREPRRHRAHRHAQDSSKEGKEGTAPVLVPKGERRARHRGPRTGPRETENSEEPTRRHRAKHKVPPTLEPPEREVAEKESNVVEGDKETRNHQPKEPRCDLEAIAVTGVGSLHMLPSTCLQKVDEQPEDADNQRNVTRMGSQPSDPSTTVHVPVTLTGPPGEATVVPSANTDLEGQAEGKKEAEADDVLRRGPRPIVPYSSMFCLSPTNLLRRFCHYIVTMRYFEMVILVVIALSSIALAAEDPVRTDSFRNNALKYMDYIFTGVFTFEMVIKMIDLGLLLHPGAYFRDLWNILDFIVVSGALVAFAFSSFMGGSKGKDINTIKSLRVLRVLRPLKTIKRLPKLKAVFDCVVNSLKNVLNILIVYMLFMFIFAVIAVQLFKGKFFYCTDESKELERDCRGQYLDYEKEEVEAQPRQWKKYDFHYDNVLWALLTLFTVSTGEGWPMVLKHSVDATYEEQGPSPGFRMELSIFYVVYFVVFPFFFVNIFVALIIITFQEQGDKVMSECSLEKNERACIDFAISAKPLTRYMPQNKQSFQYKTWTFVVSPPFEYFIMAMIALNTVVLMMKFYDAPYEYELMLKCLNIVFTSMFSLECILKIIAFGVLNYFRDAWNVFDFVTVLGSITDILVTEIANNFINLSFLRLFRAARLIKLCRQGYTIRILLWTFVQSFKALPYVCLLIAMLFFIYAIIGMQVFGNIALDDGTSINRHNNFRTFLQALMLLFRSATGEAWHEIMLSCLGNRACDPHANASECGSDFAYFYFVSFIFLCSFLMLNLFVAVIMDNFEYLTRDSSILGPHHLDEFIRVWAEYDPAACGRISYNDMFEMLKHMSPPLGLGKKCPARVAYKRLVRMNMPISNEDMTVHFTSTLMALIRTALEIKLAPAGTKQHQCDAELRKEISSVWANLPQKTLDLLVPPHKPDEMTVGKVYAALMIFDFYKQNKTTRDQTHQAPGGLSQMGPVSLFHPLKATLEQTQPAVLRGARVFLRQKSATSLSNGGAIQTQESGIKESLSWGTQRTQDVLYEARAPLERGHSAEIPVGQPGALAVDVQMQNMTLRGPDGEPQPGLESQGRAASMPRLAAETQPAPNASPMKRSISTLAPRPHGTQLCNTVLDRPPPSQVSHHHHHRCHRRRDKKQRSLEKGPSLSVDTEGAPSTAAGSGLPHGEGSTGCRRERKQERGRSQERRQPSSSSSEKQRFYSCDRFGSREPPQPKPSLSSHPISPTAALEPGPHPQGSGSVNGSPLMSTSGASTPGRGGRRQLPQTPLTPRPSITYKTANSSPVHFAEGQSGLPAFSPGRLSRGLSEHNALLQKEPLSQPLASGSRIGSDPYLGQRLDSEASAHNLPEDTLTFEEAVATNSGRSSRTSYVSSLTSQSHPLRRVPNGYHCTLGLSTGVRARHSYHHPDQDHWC
Vasopressin V1B receptor (Human), sequence (P47901 whole entry): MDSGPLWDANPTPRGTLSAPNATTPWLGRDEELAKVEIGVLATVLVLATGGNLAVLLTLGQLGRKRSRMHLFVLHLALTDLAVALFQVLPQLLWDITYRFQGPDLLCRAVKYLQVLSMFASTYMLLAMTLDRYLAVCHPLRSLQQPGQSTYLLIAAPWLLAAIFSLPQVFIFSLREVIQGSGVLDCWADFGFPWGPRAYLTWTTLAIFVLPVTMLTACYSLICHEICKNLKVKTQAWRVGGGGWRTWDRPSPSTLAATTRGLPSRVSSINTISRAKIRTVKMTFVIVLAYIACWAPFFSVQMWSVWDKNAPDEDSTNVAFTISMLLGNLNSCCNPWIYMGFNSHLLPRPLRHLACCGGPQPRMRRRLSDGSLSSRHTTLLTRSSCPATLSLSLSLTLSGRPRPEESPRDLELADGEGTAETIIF
Muscarinic M1 receptor (Human), sequence (P11229 whole entry): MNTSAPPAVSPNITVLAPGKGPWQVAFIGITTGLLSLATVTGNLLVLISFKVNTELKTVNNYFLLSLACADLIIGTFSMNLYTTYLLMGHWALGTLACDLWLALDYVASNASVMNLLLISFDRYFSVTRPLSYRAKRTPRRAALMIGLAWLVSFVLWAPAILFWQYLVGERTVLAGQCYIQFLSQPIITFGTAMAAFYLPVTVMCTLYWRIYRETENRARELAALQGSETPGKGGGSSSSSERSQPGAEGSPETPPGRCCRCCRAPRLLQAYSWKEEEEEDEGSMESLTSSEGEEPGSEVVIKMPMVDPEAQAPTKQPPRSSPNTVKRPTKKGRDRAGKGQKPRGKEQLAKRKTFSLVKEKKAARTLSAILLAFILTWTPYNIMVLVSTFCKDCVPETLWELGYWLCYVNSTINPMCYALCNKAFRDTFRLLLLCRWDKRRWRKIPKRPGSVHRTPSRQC
Neurokinin NK1 receptor (Human), sequence (P25103 whole entry): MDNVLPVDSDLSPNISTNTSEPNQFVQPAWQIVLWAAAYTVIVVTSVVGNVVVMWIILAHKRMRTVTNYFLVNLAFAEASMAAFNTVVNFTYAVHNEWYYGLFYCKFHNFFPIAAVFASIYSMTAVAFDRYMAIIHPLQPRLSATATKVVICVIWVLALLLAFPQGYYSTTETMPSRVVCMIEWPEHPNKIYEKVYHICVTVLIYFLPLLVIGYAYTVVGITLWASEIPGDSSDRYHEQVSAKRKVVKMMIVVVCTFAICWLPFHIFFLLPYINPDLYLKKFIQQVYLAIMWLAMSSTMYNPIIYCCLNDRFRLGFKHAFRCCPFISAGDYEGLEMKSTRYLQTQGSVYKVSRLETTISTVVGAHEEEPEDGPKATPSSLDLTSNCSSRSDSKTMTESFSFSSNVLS
Serotonin 5HT1A receptor (Human), sequence (P08908 whole entry): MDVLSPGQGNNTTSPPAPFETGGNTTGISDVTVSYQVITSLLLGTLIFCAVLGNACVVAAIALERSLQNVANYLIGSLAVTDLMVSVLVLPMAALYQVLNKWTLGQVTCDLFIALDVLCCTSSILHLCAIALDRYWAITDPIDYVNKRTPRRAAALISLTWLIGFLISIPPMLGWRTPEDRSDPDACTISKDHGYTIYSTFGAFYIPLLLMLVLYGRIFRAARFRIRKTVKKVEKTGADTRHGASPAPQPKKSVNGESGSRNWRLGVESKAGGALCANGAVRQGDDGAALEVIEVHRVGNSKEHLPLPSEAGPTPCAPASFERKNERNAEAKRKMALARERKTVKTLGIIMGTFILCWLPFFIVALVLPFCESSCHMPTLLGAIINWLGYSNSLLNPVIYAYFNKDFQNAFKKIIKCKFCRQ
α2B-Adrenergic receptor (Human), sequence (P18089 whole entry): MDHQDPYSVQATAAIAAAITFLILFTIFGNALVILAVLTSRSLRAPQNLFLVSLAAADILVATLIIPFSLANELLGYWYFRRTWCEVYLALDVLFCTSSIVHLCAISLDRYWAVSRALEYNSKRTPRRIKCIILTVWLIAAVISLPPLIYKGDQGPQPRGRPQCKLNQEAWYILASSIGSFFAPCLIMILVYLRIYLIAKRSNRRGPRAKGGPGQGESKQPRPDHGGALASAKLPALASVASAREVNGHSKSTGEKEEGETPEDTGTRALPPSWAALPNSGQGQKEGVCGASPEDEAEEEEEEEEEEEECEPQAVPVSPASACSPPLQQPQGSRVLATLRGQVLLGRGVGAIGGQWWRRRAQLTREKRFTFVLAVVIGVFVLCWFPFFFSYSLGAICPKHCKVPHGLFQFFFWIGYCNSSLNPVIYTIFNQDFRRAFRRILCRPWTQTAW

In the case of `CC(C)[C@@H]1CC[C@@H](C)C[C@H]1O` [l-menthol], the “Inhibition by l-Menthol (%)” value [1] is reported as 0%, the “Inhibition by l-Menthol (%)” value [2] is reported as 0% and the “Inhibition by l-Menthol (%)” value [3] is reported as 0%. The “Inhibition by l-Menthol (%)” value [4] was 0%, the “Inhibition by l-Menthol (%)” value (Ca Channel (Type N)) was 0% and the “Inhibition by l-Menthol (%)” value [5] was 1.17%. The “Inhibition by l-Menthol (%)” value [6] was 0%, the “Inhibition by l-Menthol (%)” value [7] was 3.74% and the “Inhibition by l-Menthol (%)” value [8] was 6.53%. For the same compound, the “Inhibition by l-Menthol (%)” value [9] was 0%, the “Inhibition by l-Menthol (%)” value [10] was 2.87% and the “Inhibition by l-Menthol (%)” value (Leukotriene B4 receptor) was 11.63%. The “Inhibition by l-Menthol (%)” value [11] was 0%.
